Several values for one entry are separate records, joined by “and”; a condition that tells them apart may be missing. Equal entries are not always repeated. Entries after “also recorded” stand apart in the source; their conditions may differ. Marks after values point to notes of the source that are not given here.
Tests used:
[1] = tested on: female Sprague-Dawley rats, PCG/RSC of the brain; test: 14-day repeated dose neurotoxicity study, intranasal instillation; settings: for Clinical observation: Abnormal respiration / Clinical observation: Ataxia / Clinical observation: Chromodacryorrhea / Clinical observation: Decreased general activity / Clinical observation: Decubitus / Clinical observation: Increased general activity / Clinical observation: Salivation (out of normal) / Clinical observation: audible respiration / Clinical observation: bradypnoea: 14 days
Description: Esketamine HCl was administered into each nostril of female rats at a volume of 50 μl per nostril either once, twice or thrice daily by intranasal instillation for 14 consecutive days at doses of 0 (vehicle), 18, 36 or 54 mg/day. At each instillation, the second nostril was dosed immediately after the first nostril. The interval between subsequent instillations into both nostrils was 5 minutes when dosed 2 or 3 times per day.
The vehicle control group received 3 subsequent intranasal instillations of the vehicle into both nostrils (50 μL per nostril) with 5-minute intervals for 14 consecutive days.
The positive control group received a single subcutaneous injection of (+)MK-801 at 48 hours prior to the necropsy of the vehicle control and esketamine HCl-treated animals.
Each group of main study animals consisted of 12 female rats. Four satellite animals were added to the esketamine HCl-dosed groups of main study animals for TK purposes. The plasma exposure to esketamine was measured in these animals on the first and the last day of dosing at various time points up to and including 24 hours after the first instillation.
Due to logistic constraints associated with the whole body perfusion procedure of the animals at necropsy, a staggered start was applied to the study. Consequently, all 5 groups of main study animals were divided into three subgroups of 4 animals each. For each of these subgroups treatment started on a different day. The perfusion procedure is the is the same as described for the single dose study.
All vehicle- and esketamine HCl-treated animals were sacrificed at 48 hours after the last instillation. […] The brain tissue of the vehicle control-, positive control- and esketamine HCl-treated rats were processed at the same time and handled in the same way in batches of 4 animals per group.
(§1) Furthermore, clinical observations were recorded for the esketamine HCl-dosed rats on the day of dosing at 0 till 5 minutes, 15 and 30 minutes, and at 1, 2, 4, 6 hours post-dose, at the end of the working day and at 24 hours after the last instillation in the single dose study and on the first day of dosing, after one week and towards the end of the dosing period in the repeated dose study. Body weight and body weight gain were measured daily. Food consumption was measured weekly in the repeated dose study.
(§2) On the day of terminal kill, a complete physical examination was performed on the rats in fasted condition and body weight was recorded. The surviving animals were anaesthetized by inhalation of an isoflurane (IsoFlo® Zoetis, Belgium)/oxygen mixture and killed by exsanguination via the carotid artery. […] All terminally killed rats or those killed pre-terminally were perfused with 4% paraformaldehyde in the single dose study and with glutaraldehyde 3% in potassium phosphate buffer 0.09 M with 1.4% sucrose in the repeated dose study.
(§3) Brain tissue was sampled and processed routinely. The trimmed and embedded tissue was sectioned and stained with hematoxylin-eosin (HE). Histoprocessing and staining were carried out in three batches of 4 animals per group (each batch thus containing 4 animals from vehicle control-, positive control- and the three esketamine HCl-treated groups). In the single dose study duplicate brain sections were stained with Fluoro-Jade (FJ).
All tissues showing gross abnormalities were examined […]. Histopathological examination was performed on 7 levels of brain tissue according to Bolon (2013. Toxicol. Pathol. 41(7), 1028-1048) from the vehicle control-, positive control-, and high dose esketamine HCl-treated groups in the single dose study, and in all groups in the repeated dose study.

[2] = tested on: female Sprague-Dawley rats, PCG/RSC of the brain; test: Single dose neurotoxicity study, intranasal instillation; settings: for Clinical observation: Abnormal respiration / Clinical observation: Ataxia / Clinical observation: Catalepsy / Clinical observation: Chromodacryorrhea / Clinical observation: Decreased general activity / Clinical observation: Decubitus / Clinical observation: Increased general activity / Clinical observation: Narrowed palpebral fissure / Clinical observation: Piloerection / Clinical observation: Salivation (out of normal) / Clinical observation: audible respiration / Clinical observation: bradypnoea: single dose intranasal
Description: Esketamine HCl was instilled intranasally at doses of 0 (vehicle), 36, 54 or 72 mg (expressed as esketamine base) to female rats on a single day. The dose levels were obtained by 2, 3 or 4 subsequent intranasal instillations, respectively, into both nostrils at a volume of 50 μL per nostril. At each instillation, the second nostril was dosed immediately after the first nostril. The interval between subsequent instillations into both nostrils was 5 minutes.
The vehicle control group received 4 subsequent intranasal instillations of the vehicle into both nostrils (50 μL per nostril) with 5-minute intervals.
The injection volume was 5 mL/kg.
The vehicle- and the 36 and 54 mg-dosed groups consisted of 24 animals per group, while the 72 mg-dosed and positive control groups involved 30 animals per group. Four satellite animals were added to the esketamine HCl-dosed groups of main study animals for toxicokinetic (TK) purposes. In these animals the plasma exposure to esketamine was measured on the day of dosing at various time points up to and including 24 hours after the first instillation.
Prior to the perfusion, rats were anesthetized with isoflurane. After injection of 0.1 ml heparin, the blood of the rat was flushed out with a physiological saline solution by intraarterial insertion of a needle in the abdominal aorta. Thereafter the rat was perfused with glutaraldehyde 3% in potassium phosphate 0.09M and 1.4% sucrose. Due to logistic constraints at maximum 30 animals could undergo the whole-body perfusion procedure on a given day. Therefore, a staggered start of treatment was applied to all 5 groups of main study animals. Consequently, subgroups of 4 main study animals of the vehicle- and 36 and 54 mg-dosed groups, and 5 main study animals of the 72 mg-dosed and positive control groups, were dosed on 6 consecutive days, respectively.
The vehicle control, positive control, and esketamine HCl-dosed animals were sacrificed at either 48 hours (i.e., the first 12 or 15 rats per group) or 96 hours after the dose administration time (i.e., the last 12 or 15 rats per group). The brain tissue of the vehicle control-, positive control- and esketamine HCl-treated rats were processed at the same time and handled in the same way in batches of 4 or 5 animals per group.
as §1, §2, §3
All tissues showing gross abnormalities were examined macroscopically.

[3] = Maximum solubility of esketamine HCl; settings: room temperature, pH 4.5; factor 1.15
Description: The clinical investigational product is an aqueous solution of the drug substance, esketamine hydrochloride (HCl). This formulation is administered intranasally to patients using a dual nasal spray device, which delivers one spray into each nostril. […] The formulation was stored at 37° C. for stability reasons until dosing.

Structure (SMILES): CN[C@]1(c2ccccc2Cl)CCCCC1=O.Cl [esketamine HCl, (S)-2-(2-chlorophenyl)-2-(methylamino)cyclohexanone hydrochloride]
- Clinical observation: Abnormal respiration ([1]; 18 mg/day intranasal): 2/12
- Clinical observation: Ataxia ([1]; 18 mg/day intranasal): 12/12***
- Clinical observation: Chromodacryorrhea ([1]; 18 mg/day intranasal): 0/12
- Clinical observation: Decreased general activity ([1]; 18 mg/day intranasal): 5/12
- Clinical observation: Decubitus ([1]; 18 mg/day intranasal): 0/12
- Clinical observation: Increased general activity ([1]; 18 mg/day intranasal): 12/12***
- Clinical observation: Salivation (out of normal) ([1]; 18 mg/day intranasal): 12/12***
- Clinical observation: audible respiration ([1]; 18 mg/day intranasal): 2/12
- Clinical observation: bradypnoea ([1]; 18 mg/day intranasal): 0/12
- Clinical observation: Abnormal respiration ([1]; 36 mg/day intranasal): 11/12***
- Clinical observation: Ataxia ([1]; 36 mg/day intranasal): 12/12***
- Clinical observation: Chromodacryorrhea ([1]; 36 mg/day intranasal): 0/12
- Clinical observation: Decreased general activity ([1]; 36 mg/day intranasal): 12/12***
- Clinical observation: Decubitus ([1]; 36 mg/day intranasal): 2/12
- Clinical observation: Increased general activity ([1]; 36 mg/day intranasal): 12/12***
- Clinical observation: Salivation (out of normal) ([1]; 36 mg/day intranasal): 12/12***
- Clinical observation: audible respiration ([1]; 36 mg/day intranasal): 6/12**
- Clinical observation: bradypnoea ([1]; 36 mg/day intranasal): 11/12***
- Clinical observation: Abnormal respiration ([1]; 54 mg/day intranasal): 12/12***
- Clinical observation: Ataxia ([1]; 54 mg/day intranasal): 12/12***
- Clinical observation: Chromodacryorrhea ([1]; 54 mg/day intranasal): 0/12
- Clinical observation: Decreased general activity ([1]; 54 mg/day intranasal): 12/12***
- Clinical observation: Decubitus ([1]; 54 mg/day intranasal): 8/12***
- Clinical observation: Increased general activity ([1]; 54 mg/day intranasal): 12/12***
- Clinical observation: Salivation (out of normal) ([1]; 54 mg/day intranasal): 12/12***
- Clinical observation: audible respiration ([1]; 54 mg/day intranasal): 6/12**
- Clinical observation: bradypnoea ([1]; 54 mg/day intranasal): 12/12***
- Mortality ([1]; up to 54 mg/day for 14 days): No test article related mortality occurred
- Brain histopathology (neuronal necrosis, Olney lesions) ([1]; up to 54 mg/day, 48 hours after the last instillation, hydrochloride): no morphological evidence of neuronal degeneration; also recorded: no histopathological lesions were noted; also recorded: No histopathological lesions were found; also recorded: absence of neuronal necrosis
- Duration of severely decreased activity with decubitus, bradypnea, ptosis and catalepsy (anesthesia) ([2]; 36 mg): 15 to 30 min
- Clinical observation: Abnormal respiration ([2]; 36 mg): 22/24***
- Clinical observation: Ataxia ([2]; 36 mg): 24/24***
- Clinical observation: Catalepsy ([2]; 36 mg): 20/24***
- Clinical observation: Chromodacryorrhea ([2]; 36 mg): 0/24
- Clinical observation: Decreased general activity ([2]; 36 mg): 23/24***
- Clinical observation: Decubitus ([2]; 36 mg): 23/24***
- Clinical observation: Increased general activity ([2]; 36 mg): 24/24***
- Clinical observation: Narrowed palpebral fissure ([2]; 36 mg): 7/24**
- Clinical observation: Piloerection ([2]; 36 mg): 0/24
- Clinical observation: Salivation (out of normal) ([2]; 36 mg): 23/24***
- Clinical observation: audible respiration ([2]; 36 mg): 10/24***
- Clinical observation: bradypnoea ([2]; 36 mg): 22/24***
- Clinical observation: Abnormal respiration ([2]; 54 mg): 22/24***
- Clinical observation: Ataxia ([2]; 54 mg): 24/24***
- Clinical observation: Catalepsy ([2]; 54 mg): 23/24***
- Clinical observation: Chromodacryorrhea ([2]; 54 mg): 0/24
- Clinical observation: Decreased general activity ([2]; 54 mg): 23/24***
- Clinical observation: Decubitus ([2]; 54 mg): 23/24***
- Clinical observation: Increased general activity ([2]; 54 mg): 24/24***
- Clinical observation: Narrowed palpebral fissure ([2]; 54 mg): 10/24***
- Clinical observation: Piloerection ([2]; 54 mg): 0/24
- Clinical observation: Salivation (out of normal) ([2]; 54 mg): 24/24***
- Clinical observation: audible respiration ([2]; 54 mg): 3/24
- Clinical observation: bradypnoea ([2]; 54 mg): 21/24***
- Duration of ataxia (and hyperactivity) after the decrease in activity subsided ([2]; 54 mg, hydrochloride): 1.5 to 3 h and 1 to 3 h
- Duration of severely decreased activity with decubitus, bradypnea, ptosis and catalepsy (anesthesia) ([2]; 54 mg, hydrochloride): 30 minutes to one hour and 30 minutes to an hour
- Duration of ataxia (and hyperactivity) after the decrease in activity subsided ([2]; 72 mg): up to 3 hours or longer
- Clinical observation: Abnormal respiration ([2]; 72 mg): 30/30***
- Clinical observation: Catalepsy ([2]; 72 mg): 30/30***
- Clinical observation: Chromodacryorrhea ([2]; 72 mg): 0/30
- Clinical observation: Decreased general activity ([2]; 72 mg): 30/30***
- Clinical observation: Decubitus ([2]; 72 mg): 30/30***
- Clinical observation: Increased general activity ([2]; 72 mg): 29/30***
- Clinical observation: Narrowed palpebral fissure ([2]; 72 mg): 22/30***
- Clinical observation: Piloerection ([2]; 72 mg): 0/30
- Clinical observation: Salivation (out of normal) ([2]; 72 mg): 29/30***
- Clinical observation: audible respiration ([2]; 72 mg): 2/30
- Clinical observation: bradypnoea ([2]; 72 mg): 30/30***
- Mortality ([2]; single dose 72 mg, within 30 minutes after 4 instillations): two main study animals and two satellite TK animals died
- Mortality ([2]; single dose up to 54 mg): No test article related mortality
- Brain histopathology (neuronal necrosis, Olney lesions) ([2]; single dose up to 72 mg, 48 and 96 hours post-dose, hydrochloride): no morphological evidence of neuronal degeneration; also recorded: histopathological lesions were absent; also recorded: No signs of neuronal necrosis; also recorded: no neuropathological lesions were observed
- Maximum solubility expressed as base [3]: 180 mg esketamine base/mL

Source: US11707440B2 (priority 2017, dated 2023)
